ChEMBL document CHEMBL5252568, “Rational design of HJH antimicrobial peptides to improve antimicrobial activity” (Bioorg Med Chem Lett, 2023)

Assays:
[1] = Hemolytic activity against human RBC assessed as concentration required to cause 10% hemolysis up to 256 uM relative to control; assay type: toxicity, cell-based; conditions: erythrocyte
Staphylococcus aureus = experiment: Antimicrobial activity against Staphylococcus aureus ATCC 29213 assessed as reduction in microbial growth; assay type: functional
Escherichia coli = experiment: Antimicrobial activity against Escherichia coli ATCC 25922 assessed as reduction in microbial growth; assay type: functional
HEK293 [2] = experiment: Cytotoxicity against human HEK293 cells assessed as reduction in cell viability up to 256 uM; assay type: toxicity, cell-based; conditions: hek293, 256 µM
Candida albicans = experiment: Antimicrobial activity against Candida albicans ATCC 90029 assessed as reduction in microbial growth; assay type: functional
[3] = Stability in human serum assessed as compound remaining measured after 1 hr by RP-HPLC analysis; assay type: ADME, cell-free; conditions: read-out: Stability
[4] = Stability in human serum assessed as compound remaining measured after 3 hr by RP-HPLC analysis; assay type: ADME, cell-free; conditions: read-out: Stability
HEK293 [5] = experiment: Cytotoxicity against human HEK293 cells assessed as reduction in cell viability at 1 to 128 uM relative to control; assay type: toxicity, cell-based; conditions: hek293, 128 µM, dose 1-128 µM
HEK293 [6] = experiment: Cytotoxicity against human HEK293 cells assessed as reduction in cell viability at 128 uM relative to control; assay type: toxicity, cell-based; conditions: hek293, 128 µM
[7] = Hemolytic activity in human RBC assessed as hemolysis at 128 uM relative to control; assay type: toxicity, cell-based, Erythrocyte; conditions: red blood cells, read-out: Activity
[8] = Hemolytic activity in human RBC assessed as hemolysis at 2 uM relative to control; assay type: toxicity, cell-based, Erythrocyte; conditions: red blood cells, read-out: Activity

| Molecule | Activity [1] | MIC (Staphylococcus aureus) | MIC (Escherichia coli) | Activity (HEK293 [2]) | MIC (Candida albicans) | remaining at 1 h [3] | remaining at 3 h [4] | Activity (HEK293 [5]) | Activity (HEK293 [6]) | hemolysis at 128 µM [7] | hemolysis at 2 µM [8] |
| --- | --- | --- | --- | --- | --- | --- | --- | --- | --- | --- | --- |
| H-KLLKHKLLVTLR-OH | Non-Toxic | 12.5 µg/mL | 50 µg/mL | Non-Toxic | > 200 µg/mL |  |  |  |  |  |  |
| H-KLLKRKLLVLLR-OH |  | 3 µg/mL | 12.5 µg/mL |  | > 200 µg/mL |  |  |  |  |  |  |
| H-KKLLRLLKVLLR-OH |  | 1.5 µg/mL | 1.5 µg/mL |  | 50 µg/mL | 60% | < 9% | Toxic | 50% | 35% |  |
| OC(Cn1cncn1)(Cn1cncn1)c1ccc(F)cc1F [FLUCONAZOLE] |  |  |  |  | 12.5 µg/mL |  |  |  |  |  |  |
| H-KLLKRKLLVTLR-OH | Non-Toxic | 6.25 µg/mL | 25 µg/mL | Non-Toxic | > 200 µg/mL |  |  |  |  |  |  |
| C[C@@H]1[C@H](O)[C@@H](C)/C=C/C=C/C=C/C=C/C=C/C=C/C=C/[C@H](O[C@@H]2O[C@H](C)[C@@H](O)[C@H](N)[C@@H]2O)C[C@@H]2O[C@](O)(C[C@@H](O)C[C@@H](O)[C@H](O)CC[C@@H](O)C[C@@H](O)CC(=O)O[C@H]1C)C[C@H](O)[C@H]2C(=O)O [AMPHOTERICIN B] |  | 0.4 µg/mL | 0.4 µg/mL |  |  |  |  |  |  |  |  |
| H-KLLKHKLLVTLA-OH | Non-Toxic | 50 µg/mL | 50 µg/mL | Non-Toxic | > 200 µg/mL |  | < 9% |  |  |  |  |
| H-KKLLKKLLRLLKVLLR-OH |  | 0.75 µg/mL | 25 µg/mL |  | 3 µg/mL | 60% | < 9% | Toxic | 11% |  | 90% |
